Test results from PubChem BioAssay (NCI).
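Cells were grown in 96-well plates and exposed to each compound for 48 hours at five concentrations; endpoints were interpolated linearly between bracketing concentrations, or set to the highest concentration if not reached. GI50 = concentration required for 50% inhibition of growth. Definition used: TGI = concentration required for complete inhibition of growth.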

Legend:
Experiment in all cases: NCI-60 cell line screen, 48 h
[1] = system: SF-268 CNS
[2] = system: KM12 colon
[3] = system: 786-0 renal
[4] = system: OVCAR-8 ovarian
[5] = system: OVCAR-5 ovarian
[6] = system: SF-539 CNS
[7] = system: K-562 leukemia
[8] = system: HT29 colon
[9] = system: UO-31 renal
[10] = system: UACC-257 melanoma
[11] = system: MDA-MB-231 breast
[12] = system: NCI/ADR-RES ovarian
[13] = system: M14 melanoma
[14] = system: MCF7 breast
[15] = system: A498 renal
[16] = system: TK-10 renal
[17] = system: SN12C renal
[18] = system: SNB-19 CNS
[19] = system: NCI-H460 lung
[20] = system: SNB-75 CNS
[21] = system: HCC-2998 colon
[22] = system: UACC-62 melanoma
[23] = system: SK-MEL-2 melanoma
[24] = system: T-47D breast
[25] = system: NCI-H226 lung
[26] = system: HL-60(TB) leukemia
[27] = system: NCI-H23 lung
[28] = system: COLO 205 colon
[29] = system: SF-295 CNS
[30] = system: SW-620 colon
[31] = system: PC-3 prostate
[32] = system: SK-MEL-28 melanoma
[33] = system: RPMI-8226 leukemia
[34] = system: HCT-116 colon
[35] = system: SR leukemia
[36] = system: DU-145 prostate
[37] = system: A549 NSCLC
[38] = system: HOP-62 NSCLC
[39] = system: CCRF-CEM leukemia
[40] = system: IGROV1 ovarian
[41] = system: OVCAR-3 ovarian
[42] = system: CAKI-1 renal
[43] = system: ACHN renal
[44] = system: NCI-H522 lung
[45] = system: MALME-3M melanoma
[46] = system: MDA-MB-435
[47] = system: HOP-92 NSCLC
[48] = system: SK-MEL-5 melanoma
[49] = system: HS 578T breast
[50] = system: SK-OV-3 ovarian
[51] = system: OVCAR-4 ovarian
[52] = system: BT-549 breast
[53] = system: MOLT-4 leukemia
[54] = system: HCT-15 colon
[55] = system: LOX IMVI melanoma
[56] = system: RXF 393 renal
[57] = system: U251 CNS

SMILES: CCOC(=O)Nc1nc2cc(OC)c(OC)c(OC)c2s1
- GI50 [1]: 50.4 µM
- TGI [1]: > 100 µM
- GI50 [2]: > 100 µM
- TGI [2]: > 100 µM
- GI50 [3]: 61.2 µM
- TGI [3]: > 100 µM
- GI50 [4]: > 100 µM
- TGI [4]: > 100 µM
- GI50 [5]: > 100 µM
- TGI [5]: > 100 µM
- GI50 [6]: > 100 µM
- TGI [6]: > 100 µM
- GI50 [7]: > 100 µM
- TGI [7]: > 100 µM
- GI50 [8]: > 100 µM
- TGI [8]: > 100 µM
- GI50 [9]: 13.9 µM
- TGI [9]: > 100 µM
- GI50 [10]: > 100 µM
- TGI [10]: > 100 µM
- GI50 [11]: 31.5 µM
- TGI [11]: > 100 µM
- GI50 [12]: > 100 µM
- TGI [12]: > 100 µM
- GI50 [13]: > 100 µM
- TGI [13]: > 100 µM
- GI50 [14]: > 100 µM
- TGI [14]: > 100 µM
- GI50 [15]: 26.2 µM
- TGI [15]: > 100 µM
- GI50 [16]: 42.4 µM
- TGI [16]: > 100 µM
- GI50 [17]: > 100 µM
- TGI [17]: > 100 µM
- GI50 [18]: > 100 µM
- TGI [18]: > 100 µM
- GI50 [19]: > 100 µM
- TGI [19]: > 100 µM
- GI50 [20]: 16.9 µM
- TGI [20]: 64.6 µM
- GI50 [21]: > 100 µM
- TGI [21]: > 100 µM
- GI50 [22]: > 100 µM
- TGI [22]: > 100 µM
- GI50 [23]: 62.6 µM
- TGI [23]: > 100 µM
- GI50 [24]: > 100 µM
- TGI [24]: > 100 µM
- GI50 [25]: 73.7 µM
- TGI [25]: > 100 µM
- GI50 [26]: > 100 µM
- TGI [26]: > 100 µM
- GI50 [27]: 28.5 µM
- TGI [27]: > 100 µM
- GI50 [28]: > 100 µM
- TGI [28]: > 100 µM
- GI50 [29]: 41.4 µM
- TGI [29]: > 100 µM
- GI50 [30]: > 100 µM
- TGI [30]: > 100 µM
- GI50 [31]: > 100 µM
- TGI [31]: > 100 µM
- GI50 [32]: > 100 µM
- TGI [32]: > 100 µM
- GI50 [33]: > 100 µM
- TGI [33]: > 100 µM
- GI50 [34]: > 100 µM
- TGI [34]: > 100 µM
- GI50 [35]: > 100 µM
- TGI [35]: > 100 µM
- GI50 [36]: > 100 µM
- TGI [36]: > 100 µM
- GI50 [37]: > 100 µM
- TGI [37]: > 100 µM
- GI50 [38]: 24.9 µM
- TGI [38]: 95.6 µM
- GI50 [39]: > 100 µM
- TGI [39]: > 100 µM
- GI50 [40]: 91 µM
- TGI [40]: > 100 µM
- GI50 [41]: 51.5 µM
- TGI [41]: > 100 µM
- GI50 [42]: > 100 µM
- TGI [42]: > 100 µM
- GI50 [43]: 46.9 µM
- TGI [43]: > 100 µM
- GI50 [44]: > 100 µM
- TGI [44]: > 100 µM
- GI50 [45]: > 100 µM
- TGI [45]: > 100 µM
- GI50 [46]: > 100 µM
- TGI [46]: > 100 µM
- GI50 [47]: 15.8 µM
- TGI [47]: 74.9 µM
- GI50 [48]: > 100 µM
- TGI [48]: > 100 µM
- GI50 [49]: 17.5 µM
- TGI [49]: > 100 µM
- GI50 [50]: 66.5 µM
- TGI [50]: > 100 µM
- GI50 [51]: > 100 µM
- TGI [51]: > 100 µM
- GI50 [52]: > 100 µM
- TGI [52]: > 100 µM
- GI50 [53]: > 100 µM
- TGI [53]: > 100 µM
- GI50 [54]: > 100 µM
- TGI [54]: > 100 µM
- GI50 [55]: > 100 µM
- TGI [55]: > 100 µM
- GI50 [56]: 49.4 µM
- TGI [56]: > 100 µM
- GI50 [57]: 38.7 µM
- TGI [57]: > 100 µM
